Tests used:
Setaria viridis = assay: Growth-chamber post-emergence herbicidal assay (Example 2); format: in vivo; settings: 1000 g/ha, 3-4 days after application
Method: Herbicidal activity was determined by post-emergence application on 8-day old plants (weeds) of the Amaranthus palmeri and Setaria viridis species that were grown at 16 hours/8 hours day/night cycles at 30° C./25° C., respectively. Leaf stage was typically 4-6 for A. palmeri and 3-4 for S. viridis.
In each treatment, 2-3 pots, each containing about 5 plants each (for Setaria viridis), and one 9-pack, containing about 9 plants (for Amaranthus palmeri), were sprayed using a VL-SET Paasche Airbrush with 0.3-1.5 ml solution containing 0.125-2 mg/ml of a tested compound, which is equivalent to about 125-2000 g/ha.
(§1) Damage assessment: Herbicidal activity was assessed and scored 3-4 days after application by visual inspection of the plants in comparison to plants treated with the formulation alone (with no active ingredient) as control. Activity score is in the range of 0 to 100, where 0 represents no herbicidal activity like control plants and 100 represents the maximal herbicidal activity (i.e., total death of the plant).
Herbicidal activity scores 3-4 days after application are presented Table 3 below.

A. palmeri = assay: Greenhouse post-emergence assay (Example 3); format: in vivo, Amaranthus palmeri; settings: 4% TWEEN 20, 0.05 M Tris buffer pH 8, 0.05% Break-Thru
Method: Plant seeds were sowed in 9 cm×9 cm×10 cm flowerpots. Timing of sowing (days before treatment application) for each plant is detailed in Table 7 below. 5 flowerpots of each species were used for each treatment. Seeds were sowed in wet clay soil and then covered with about 1 cm layer of dry clay soil.
Irrigation: Irrigation was carried out using VIBRONET-UD (NETAFIM) sprinklers hanging upside down one meter above the flowerpots. Water flow capacity-50 liters per hour. Irrigation was carried out three times a day for 10 minutes.
Treatments: Table 8 presents generally the protocols of the various treatments used in these assays.
(§2) 57.6 ml of 0.05 M Tris buffer pH=8 were added to 150 mg of Compound 1 and the mixture was stirred using a magnetic stirrer. 2.4 ml of TWEEN®20 were added and the mixture was stirred using a magnetic stirrer to obtain a 4% TWEEN®20-containing solution. 30 μl of Break-Thru were added to obtain a 0.05% Break-Thru-containing solution.
as §2, with “225” for “150”
Plants were sprayed using a DeVreis Generation 4 Research Track Sprayer with a TEE JET nozzle 80015EVS. Spraying volume was 200 L/ha using the following sprayer parameters: • Spray speed-2 KMH • Spray length-1.50 m • Spray pressure-42 PSI
Each plant was sprayed twice, yielding a total spraying volume of 400 L/ha. Nozzle was located 55 cm above pots ground level.
A. palmeri, S. viridis and S. nigrum plants were elevated with 8 cm tray, Z. mays plants were elevated with 3 cm tray in order to achieve a similar spraying height for all plant's foliage.
Plants were scored by visual inspection of symptoms, on a scale of 0-100, where 0 represents no herbicidal activity like control plants and 100 represents the maximal herbicidal activity (i.e., total death of the plant). Each pot was scored separately. DAT=days after treatment

Lolium multiflorum = assay: Growth-chamber post-emergence assay on additional weeds (Example 2); format: in vivo; settings: 1000 g/ha; 13-day old plants; 3 days after application; scale 0-100
Method: (§3) Herbicidal activity of Compound 1 was determined by post-emergence application on 13-day old Echinochloa colonum, Lolium multiflorum and Solanum nigrum.
(§4) In each treatment, 3 pots, each containing about 5 plants, were sprayed using the same conditions as described above which are equivalent to 1000 g/ha. Herbicidal activity was assessed and scored 3 days after application by visual inspection of the weeds. Activity score is in the range of 0 to 100, where 0 represents no herbicidal activity like control plants and 100 represents the maximal herbicidal activity (i.e., total death of the plant). The obtained data is presented in Table 6 below per the activity score as described herein.

Echinochloa colonum = assay: as above; format: in vivo; settings: 1000 g/ha; 13-day old plants; 3 days after application; scale 0-100
Method: as §3, §4

Solanum nigrum = assay: as above; format: in vivo; settings: 1000 g/ha; 13-day old plants; 3 days after application; scale 0-100
Method: as §3, §4

B. cinerea = assay: PDA plate fungicidal assay (Example 4); format: cell-based, Botrytis cinerea; settings: average of two plates
Method: Compound 1 was dissolved in 0.05 M Tris buffer pH=8 to a concentration of 4 mg/ml, and then diluted with a sterile PDA solution to final concentrations of 40 and 400 μg/ml. 10 ml of each solution were poured to a 100 mm petri dish and left to cool down. A 0.5 cm diameter agar disc inoculated with 3-day old B. cinerea hypha was placed upside down in the center of each PDA plate. Each treatment contained two repeats (two plates). Plates were incubated at 21° C. for 4 days. Fungicidal activity was scored by measuring the radial growth area of the hypha. Results were recorded 2-4 days after inoculation (DAI). % growth inhibition was calculated relative to control treatment without Compound 1.

X. strumarium = assay: Growth-chamber post-emergence assay on various weed species (Example 7); format: in vivo, Xanthium strumarium; settings: 1500 g/ha; 0.8% MIPA, 0.25% Genapol, 2% HASTEN, 0.05% Break-Thru
Method: Herbicidal activity of Compound 1 was determined by post-emergence application on various weed species. 8-14 day old plants (weeds) were grown at 16 hours/8 hours day/night cycles at 30° C./25° C., respectively. Leaf stage was typically 2-6.
In each treatment, 3 pots (either 7×7 or 8×12 cm), containing about 3-6 plants each, were sprayed using a VL-SET Paasche Airbrush with a 1-1.5 ml-solution containing 0.5-1.5 mg/ml of the tested compound, which is equivalent to about 500-1500 g/ha.
as §1

`O=C(O)c1cc(O)c2c(c1)C(=O)c1cccc(O)c1C2=O` [Compound 1, Rhein] gave a Herbicidal activity score (Setaria viridis; 1 mg/ml in 0.015% Ammonium hydroxide, 0.25% Adsee) of 10, a Herbicidal activity score (Setaria viridis; 1 mg/ml in 0.015% Ammonium hydroxide, 0.25% Genapol X-080) of 70 and a Herbicidal activity score (Setaria viridis; 1 mg/ml in 0.015% Ammonium hydroxide, 0.7% Sodium Lauryl Ether sulfate) of 100. It also gave a Herbicidal activity score (Setaria viridis; 1 mg/ml in 0.015% Ammonium hydroxide, 1% AGNIQUE, 0.05% Ca-LAS, 0.02% BSU) of 70, a Herbicidal activity score (Setaria viridis; 1 mg/ml in 0.015% Ammonium hydroxide, 2% Tween 20, scale 0-100) of 80 and a Herbicidal activity score (Setaria viridis; 1 mg/ml in 0.037% MIPA, 0.25% Adsee) of 40. The Herbicidal activity score (Setaria viridis; 1 mg/ml in 0.037% MIPA, 0.25% Genapol X-080) was 100, the Herbicidal activity score (Setaria viridis; 1 mg/ml in 0.037% MIPA, 0.7% Sodium Lauryl Ether sulfate) was 100 and the Herbicidal activity score (Setaria viridis; 1 mg/ml in 0.037% MIPA, 1% AGNIQUE, 0.05% Ca-LAS, 0.02% BSU) was 70. For the same molecule, the Herbicidal activity score (Setaria viridis; 1 mg/ml in 0.037% MIPA, 2% Tween 20) was 100, the “Activity Score” value (Setaria viridis; 2% TWEEN 20, 5.2 mM Ammonium hydroxide, 0.05% Break-Thru, scale 0-100) was 90 and the “Score by visual inspection of symptoms (average ± standard deviation, 5 pots)” value (“Score … (average ± standard deviation, 5 pots)” for short) (A. palmeri; 1000 g/ha (2.5 mg/ml, 400 L/ha), 1 DAT, scale 0-100) was 22 ± 13. The “Score … (average ± standard deviation, 5 pots)” value (A. palmeri; 1000 g/ha (2.5 mg/ml, 400 L/ha), 3 DAT) was 54 ± 11.4, the “Score … (average ± standard deviation, 5 pots)” value (A. palmeri; 1000 g/ha (2.5 mg/ml, 400 L/ha), 6 DAT) was 36 ± 8.9 and the “Score … (average ± standard deviation, 5 pots)” value (A. palmeri; 1000 g/ha (2.5 mg/ml, 400 L/ha), 8 DAT) was 34 ± 11.4. The “Score … (average ± standard deviation, 5 pots)” value (A. palmeri; 1000 g/ha (2.5 mg/ml, 400 L/ha), 15 DAT) was 20 ± 15.8, the “Score … (average ± standard deviation, 5 pots)” value (A. palmeri; 1500 g/ha (3.75 mg/ml, 400 L/ha), 1 DAT) was 38 ± 29.5 and the “Score … (average ± standard deviation, 5 pots)” value (A. palmeri; 1500 g/ha (3.75 mg/ml, 400 L/ha), 3 DAT) was 90 ± 9.4. The “Score … (average ± standard deviation, 5 pots)” value (A. palmeri; 1500 g/ha (3.75 mg/ml, 400 L/ha), 6 DAT) was 87 ± 9.7, the “Score … (average ± standard deviation, 5 pots)” value (A. palmeri; 1500 g/ha (3.75 mg/ml, 400 L/ha), 8 DAT) was 83 ± 14 and the “Score … (average ± standard deviation, 5 pots)” value (A. palmeri; 1500 g/ha (3.75 mg/ml, 400 L/ha), 15 DAT) was 66 ± 29.7. The Activity Score (Lolium multiflorum) was 50, the Activity Score (Echinochloa colonum) was 70 and the Activity Score (Solanum nigrum) was 60. The “% growth inhibition (radial growth area of the hypha, relative to control)” value (B. cinerea; 40 μg/ml in PDA, 2 DAI) was 61%, the “% growth inhibition (radial growth area of the hypha, relative to control)” value (B. cinerea; 40 μg/ml in PDA, 3 DAI) was 82% and the “% growth inhibition (radial growth area of the hypha, relative to control)” value (B. cinerea; 40 μg/ml in PDA, 4 DAI) was 86%. The “% growth inhibition (radial growth area of the hypha, relative to control)” value (B. cinerea; 400 μg/ml in PDA, 2 DAI) was 82%, the “% growth inhibition (radial growth area of the hypha, relative to control)” value (B. cinerea; 400 μg/ml in PDA, 3 DAI) was 88% and the “% growth inhibition (radial growth area of the hypha, relative to control)” value (B. cinerea; 400 μg/ml in PDA, 4 DAI) was 83%. It also gave a Herbicidal activity score (X. strumarium) of 90.

— patent US20240358015A1, “HERBICIDAL COMPOSITIONS” (Agrematch Ltd., priority 2021, published 2024)
